57 molecules from the supplement of paper PMC12317010 can be followed below.

Counter-ions that a name gives are not always drawn.

A short description of the data set: collision cross section in nitrogen (drift tube, single-field); higher = larger gas-phase ion size.
[1] abbreviates: ion type: [M-H], ion source: ESI, ion mode: Negative.
Where [2] appears, read: ion source: APCI, ion mode: Positive, ion type: [M]+ (permanent cation).
Where [3] appears, read: ion source: ESI, ion mode: Positive, ion type: [M]+ (permanent cation).
Where [4] appears, read: ion type: [M+Na], ion source: ESI, ion mode: Positive.
Setting [5] is: ion type: [M+H], ion source: APCI, ion mode: Positive.
Setting [6] is: ion type: [M+H], ion source: ESI, ion mode: Positive.
The mark [7] stands for this setting: ion type: [M+], ion source: APCI, ion mode: Positive.
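Also: chemical standards at 10 µM analysed by drift tube IMS-QTOF MS in about 3.95 torr nitrogen, mean of duplicate injections differing ≤1%, mass error below 10 ppm.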

On to `O=[N+]([O-])O` [Magnesium dinitrate hexahydrate], for which the “collision cross section in nitrogen” value under setting [1] turned out to be 104.1 Å².
Regarding `CN(C)c1ccc(C(=C2C=CC(=[N+](C)C)C=C2)c2ccccc2)cc1` [Malachite green], the “collision cross section in nitrogen” value is, setting by setting: under setting [2], 188.5 Å²; under setting [3], 188.9 Å².
For `CCOC(=O)CC(SP(=O)(OC)OC)C(=O)OCC` (configuration not stated) [Malaoxon], the “collision cross section in nitrogen” value under setting [4] stood at 165.7 Å².
On to `CCOC(=O)CC(SP(=S)(OC)OC)C(=O)OCC` (configuration not stated) [Malathion], for which the “collision cross section in nitrogen” value under setting [4] was 172.2 Å².
As to `O=c1ccc(=O)[nH][nH]1` [Maleic hydrazide], the “collision cross section in nitrogen” value under setting [1] is on record as 117.8 Å².
As for `O=C(O)CC(O)C(=O)O` (configuration not stated) [Malic acid], the “collision cross section in nitrogen” value under setting [1] amounted to 116.9 Å².
`Cc1occc(=O)c1O` [Maltol]: under setting [5], the “collision cross section in nitrogen” value was determined as 119.5 Å².
Take `CNCCCC12CCC(c3ccccc31)c1ccccc12` [Maprotiline hydrochloride]: the “collision cross section in nitrogen” value by setting is: under setting [5], 164.1 Å²; under setting [6], 164.3 Å².
Turning to `CC(=O)O[C@]1(C(C)=O)CC[C@H]2[C@@H]3C[C@H](C)C4=CC(=O)CC[C@]4(C)[C@H]3CC[C@@]21C` [Medroxyprogesterone acetate], the “collision cross section in nitrogen” value under setting [4] was 212.7 Å².
`Cc1cccc(Nc2ccccc2C(=O)O)c1C` [Mefenamic acid]: the “collision cross section in nitrogen” value runs as follows: under setting [7], 152.3 Å²; under setting [1], 160.9 Å².
`CCOC(=O)C1=NN(c2ccc(Cl)cc2Cl)C(C)(C(=O)OCC)C1` (configuration not stated) [Mefenpyr-diethyl]: the “collision cross section in nitrogen” value under setting [4] is 194.8 Å².
As for `COc1ccc2[nH]cc(CCNC(C)=O)c2c1` [Melatonin], the “collision cross section in nitrogen” value stood at 153.7 Å² under setting [5], 153.3 Å² under setting [6], 156.9 Å² under setting [4] and 156 Å² under setting [1].
In the case of `C=C1C[C@H]2[C@@H]3C=C(C)C4=CC(=O)CC[C@]4(C)[C@H]3CC[C@]2(C)[C@@]1(OC(C)=O)C(C)=O` [Melengestrol acetate], the “collision cross section in nitrogen” value under setting [5] came to 201.5 Å² and the “collision cross section in nitrogen” value under setting [6] stood at 200.3 Å².
As to `Cc1cnc(NC(=O)C2=C(O)c3ccccc3S(=O)(=O)N2C)s1` [Meloxicam], the “collision cross section in nitrogen” value under setting [5] turned out to be 179.2 Å², the “collision cross section in nitrogen” value under setting [6] amounted to 178.5 Å², the “collision cross section in nitrogen” value under setting [4] is 184.2 Å² and the “collision cross section in nitrogen” value under setting [1] is 177.7 Å².
As for `CC#Cc1cc(C)nc(Nc2ccccc2)n1` [Mepanipyrim], the “collision cross section in nitrogen” value by setting is: under setting [5], 152.6 Å²; under setting [6], 153.1 Å²; under setting [7], 147.3 Å²; under setting [1], 160.6 Å².
Regarding `Cc1ccccc1C(=O)Nc1cccc(OC(C)C)c1` [Mepronil], the “collision cross section in nitrogen” value under setting [5] amounted to 169.9 Å², the “collision cross section in nitrogen” value under setting [6] is recorded as 169.4 Å², the “collision cross section in nitrogen” value under setting [4] was determined as 180.1 Å² and the “collision cross section in nitrogen” value under setting [1] is on record as 172.6 Å².
`N#Cc1ccc(CC(=NNC(=O)Nc2ccc(OC(F)(F)F)cc2)c2cccc(C(F)(F)F)c2)cc1` [Metaflumizone]: the “collision cross section in nitrogen” value is recorded as 212.4 Å² under setting [6] and 220.1 Å² under setting [4].
As for `COCC(=O)N(c1c(C)cccc1C)[C@H](C)C(=O)OC` [Metalaxyl-M], the “collision cross section in nitrogen” value reads like this: under setting [5], 160.5 Å²; under setting [6], 160 Å²; under setting [4], 168.8 Å².
For the molecule `COCC(=O)N(c1c(C)cccc1C)C(C)C(=O)OC` (configuration not stated) [Metalaxyl], the “collision cross section in nitrogen” value is, setting by setting: under setting [5], 160.5 Å²; under setting [6], 160.8 Å²; under setting [4], 169.4 Å².
With `Cc1nnc(-c2ccccc2)c(=O)n1N` [Metamitron], the “collision cross section in nitrogen” value runs as follows: under setting [5], 144.9 Å²; under setting [6], 145.2 Å².
Take `Cc1cc(C)cc(OCC2CNC(=O)O2)c1` (configuration not stated) [Metaxalone]: under setting [4], the “collision cross section in nitrogen” value was 152.3 Å².
`CC1(C)CCC(Cc2ccc(Cl)cc2)C1(O)Cn1cncn1` (configuration not stated) [Metconazole]: the “collision cross section in nitrogen” value runs as follows: under setting [5], 169.3 Å²; under setting [6], 169.1 Å²; under setting [4], 176.1 Å².
For `CC1CN1P(=O)(N1CC1C)N1CC1C` (configuration not stated) [Metepa], the “collision cross section in nitrogen” value by setting is: under setting [5], 142.5 Å²; under setting [6], 143.2 Å²; under setting [4], 159.9 Å².
In the case of `CN(C)C(=N)NC(=N)N` [Metformin], the “collision cross section in nitrogen” value by setting is: under setting [5], 125.1 Å²; under setting [6], 125.7 Å².
`CNC(=O)N(C)c1nc2ccccc2s1` [Methabenzthiazuron]: the “collision cross section in nitrogen” value runs as follows: under setting [5], 144.2 Å²; under setting [6], 144.7 Å².
For `CN(C)CCN(Cc1cccs1)c1ccccn1` [Methapyrilene fumarate], the “collision cross section in nitrogen” value came out at 157.8 Å² under setting [6] and 160.3 Å² under setting [4].
As to `CN(C)CCN(Cc1cccs1)c1ccccn1` [Methapyrilene hydrochloride], the “collision cross section in nitrogen” value reads like this: under setting [5], 157.6 Å²; under setting [6], 157.6 Å²; under setting [4], 160.1 Å².
Take `Cc1oc(C)c(C(=O)Nc2ccccc2)c1C` [Methfuroxam]: the “collision cross section in nitrogen” value was 152.5 Å² under setting [5] and 153.3 Å² under setting [6].
As for `COc1nn(CSP(=S)(OC)OC)c(=O)s1` [Methidathion], the “collision cross section in nitrogen” value under setting [4] is given as 163.4 Å².
As to `Cn1cc[nH]c1=S` [Methimazole], the “collision cross section in nitrogen” value under setting [5] was 116.9 Å² and the “collision cross section in nitrogen” value under setting [6] was determined as 118.1 Å².
`Cc1cccc(NC(=S)N(C)C)c1` [Methiuron]: the “collision cross section in nitrogen” value stood at 143.1 Å² under setting [5], 143.3 Å² under setting [6] and 147.1 Å² under setting [1].
Consider `COc1ccccc1OCC(O)COC(N)=O` (configuration not stated) [Methocarbamol], for which the “collision cross section in nitrogen” value under setting [4] is reported as 154.6 Å².
Take `COc1cccc(C(=O)NN(C(=O)c2cc(C)cc(C)c2)C(C)(C)C)c1C` [Methoxyfenozide]: the “collision cross section in nitrogen” value is 201.9 Å² under setting [4] and 194.2 Å² under setting [1].
On to `COC(=O)CCc1cc(C(C)(C)C)c(O)c(C(C)(C)C)c1` [Methyl 3,5-bis(tert-butyl)-4-hydroxyhydrocinnamate], for which the “collision cross section in nitrogen” value by setting is: under setting [4], 176.2 Å²; under setting [1], 178.7 Å².
On to `COC(=O)c1sccc1S(N)(=O)=O` [Methyl 3-sulfamoylthiophene-2-carboxylate], for which the “collision cross section in nitrogen” value was 148.5 Å² under setting [4] and 141.1 Å² under setting [1].
As for `COC(=O)C1(O)c2ccccc2-c2ccccc21` [Methyl 9-hydroxy-9H-fluorene-9-carboxylate], the “collision cross section in nitrogen” value under setting [1] is reported as 150.1 Å².
As to `CCCCCCC(O)CCCCCCCCCCC(=O)OC` (configuration not stated) [Methyl 12-hydroxyoctadecanoate], the “collision cross section in nitrogen” value under setting [4] worked out at 194.2 Å².
For `COS(=O)(=O)c1ccccc1` [Methyl benzenesulphonate], the “collision cross section in nitrogen” value under setting [1] was determined as 135 Å².
Still for that read-out and setting: in the case of `CCCCCCCCCCCC(=O)OC` [Methyl dodecanoate] it was 158.5 Å².
With `COc1ccc([C@@H]2CC(=O)c3c(O)cc(O[C@@H]4O[C@H](CO[C@@H]5O[C@@H](C)[C@H](O)[C@@H](O)[C@H]5O)[C@@H](O)[C@H](O)[C@H]4O)cc3O2)cc1OC` [Methyl hesperidin], the “collision cross section in nitrogen” value runs as follows: under setting [4], 232.5 Å²; under setting [1], 245.2 Å².
With `CCCCCCCCCCCCCCCC(=O)OC` [Methyl hexadecanoate], the “collision cross section in nitrogen” value under setting [1] was found to be 173.6 Å².
As for `COC(=O)c1cccnc1` [Methyl nicotinate], under setting [5], the “collision cross section in nitrogen” value is 126.6 Å².
With `CCCCCCCC(=O)OC` [Methyl octanoate], the “collision cross section in nitrogen” value under setting [1] is 146.7 Å².
Consider `COC(=O)Cc1ccccc1` [Methyl phenylacetate], for which the “collision cross section in nitrogen” value under setting [1] came out at 131.4 Å².
Regarding `CN(C)c1ccc(/N=N/c2ccccc2C(=O)O)cc1` [Methyl red], the “collision cross section in nitrogen” value by setting is: under setting [5], 163.1 Å²; under setting [6], 163 Å²; under setting [4], 179.2 Å²; under setting [1], 175.2 Å².
Turning to `C[C@](N)(Cc1ccc(O)c(O)c1)C(=O)O` [Methyldopa sesquihydrate], under setting [6], the “collision cross section in nitrogen” value was determined as 149.6 Å².
For `CCC(=O)/C=C/C1C(C)=CCCC1(C)C` (configuration not stated) [Methylionone], the “collision cross section in nitrogen” value under setting [1] is listed as 155.8 Å².
`CCCCCCCC[N+](C)(CCCCCCCC)CCCCCCCC` [Methyltrioctylammonium chloride]: the “collision cross section in nitrogen” value by setting is: under setting [2], 222.2 Å²; under setting [3], 221.8 Å².
For `CCc1cccc(C)c1N(C(=O)CS(=O)(=O)O)C(C)COC` (configuration not stated) [Metolachlor ESA], the “collision cross section in nitrogen” value is, setting by setting: under setting [4], 177.4 Å²; under setting [1], 173.9 Å².
As for `CCc1cccc(C)c1N(C(=O)C(=O)O)C(C)COC` (configuration not stated) [Metolachlor OA], the “collision cross section in nitrogen” value under setting [1] came out at 165.9 Å².
As to `CCc1cccc(C)c1N(C(=O)CCl)C(C)COC` (configuration not stated) [Metolachlor], the “collision cross section in nitrogen” value is given as 158.9 Å² under setting [5], 159.8 Å² under setting [6] and 172.6 Å² under setting [4].
Consider `COCCc1ccc(OCC(O)CNC(C)C)cc1` (configuration not stated) [Metoprolol], for which the “collision cross section in nitrogen” value runs as follows: under setting [5], 171.7 Å²; under setting [6], 172.1 Å²; under setting [4], 164 Å².
For the molecule `CSc1nnc(C(C)(C)C)c(=O)[nH]1` [Metribuzin-DA], the “collision cross section in nitrogen” value reads like this: under setting [5], 144.2 Å²; under setting [6], 145.2 Å²; under setting [4], 161.3 Å²; under setting [1], 144.8 Å².
Turning to `CSc1nnc(C(C)(C)C)c(=O)n1N` [Metribuzin], the “collision cross section in nitrogen” value under setting [5] is 146.7 Å², the “collision cross section in nitrogen” value under setting [6] was 148.4 Å² and the “collision cross section in nitrogen” value under setting [1] turned out to be 148.3 Å².
Regarding `Cc1ncc([N+](=O)[O-])n1CCO` [Metronidazole], the “collision cross section in nitrogen” value came to 133.8 Å² under setting [5] and 134.3 Å² under setting [6].
On to `CC(C)(C(=O)c1cccnc1)c1cccnc1` [Metyrapone], for which the “collision cross section in nitrogen” value under setting [6] is listed as 156.2 Å².
`COc1ccc(OC)c(C(O)CNC(=O)CN)c1` (configuration not stated) [Midodrine hydrochloride]: the “collision cross section in nitrogen” value runs as follows: under setting [4], 164.3 Å²; under setting [1], 159.5 Å².
